Laboratory results reported in patent publication US20170355705A1 (GlaxoSmithKline Intellectual Property (No.2) Limited, priority 2014, published 2017).
One block for each compound: values may come before it.

Target: T1, SIRT1 (Homo sapiens, UniProt Q96EB6)
T1 sequence (Q96EB6 1-747): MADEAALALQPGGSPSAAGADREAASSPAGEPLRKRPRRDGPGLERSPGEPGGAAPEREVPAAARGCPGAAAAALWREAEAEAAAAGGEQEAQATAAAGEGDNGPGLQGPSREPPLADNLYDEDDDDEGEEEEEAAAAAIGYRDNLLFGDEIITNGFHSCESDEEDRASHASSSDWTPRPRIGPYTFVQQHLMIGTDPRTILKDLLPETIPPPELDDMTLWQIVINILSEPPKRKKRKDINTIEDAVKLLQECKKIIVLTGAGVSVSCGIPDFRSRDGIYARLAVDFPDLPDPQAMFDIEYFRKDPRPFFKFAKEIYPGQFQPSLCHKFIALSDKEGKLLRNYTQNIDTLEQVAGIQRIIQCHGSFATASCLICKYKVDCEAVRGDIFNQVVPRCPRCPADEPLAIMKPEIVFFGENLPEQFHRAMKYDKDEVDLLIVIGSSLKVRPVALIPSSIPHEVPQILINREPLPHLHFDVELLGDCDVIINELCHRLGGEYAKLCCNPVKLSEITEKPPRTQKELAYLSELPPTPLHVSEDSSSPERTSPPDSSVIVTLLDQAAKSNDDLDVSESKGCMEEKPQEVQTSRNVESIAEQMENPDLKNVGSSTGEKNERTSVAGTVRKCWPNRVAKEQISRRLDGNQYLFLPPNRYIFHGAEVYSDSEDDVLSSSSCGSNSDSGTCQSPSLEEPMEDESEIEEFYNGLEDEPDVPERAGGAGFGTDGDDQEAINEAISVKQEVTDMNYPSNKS
Assay: Trp mass spectrometry assay of SIRT1 activity (EC1.5, percent maximum activation)
Type: biochemical
Conditions: Trp mass spectrometry assay; for TRP Activity (EC1.5): EC1.5 = concentration giving 150% activation of SIRT1; for TRP MAX RESP (percent maximum fold activation): percent maximum activation of SIRT1
Summary of the method: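 MS readout: O-acetyl-ADP-ribose (or deacetylated peptide) formed by His-tagged SIRT1 (BL21(DE3)-expressed) on 5TMR-Trp p53-based peptide, 25 min, formic acid stop. EC1.5 = concentration raising activity 50% over no-compound control; % max activation vs control = 100%.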

SMILES: Cc1cc(-c2nc3c(cc2Cl)N2CC[C@@H](C2)N3C(=O)Nc2cc(OC[C@H](O)CO)ccn2)ccn1 [Example 38, (4S)-8-chloro-N-(4-((R)-2,3-dihydroxypropoxy)pyridin-2-yl)-7-(2-methylpyridin-4-yl)-3,4-dihydro-1,4-methanopyrido[2,3-b][1,4]diazepine-5(2H)-carboxamide]
TRP Activity (EC1.5): B (EC1.5 1-25 μM)
TRP MAX RESP (percent maximum fold activation): A (Fold activation ≧150%)

SMILES: Cc1cc(-c2nc3c(cc2Cl)N2CC[C@@H](C2)N3C(=O)Nc2ccnc(OC[C@H](O)CO)c2)ccn1 [Example 39, (4S)-8-chloro-N-(2-((R)-2,3-dihydroxypropoxy)pyridin-4-yl)-7-(2-methylpyridin-4-yl)-3,4-dihydro-1,4-methanopyrido[2,3-b][1,4]diazepine-5(2H)-carboxamide]
TRP Activity (EC1.5): B (EC1.5 1-25 μM)
TRP MAX RESP (percent maximum fold activation): A (Fold activation ≧150%)

SMILES: Cc1cc(-c2nc3c(cc2Cl)N2CC[C@@H](C2)N3C(=O)Nc2cnc(OC[C@@H](O)CO)cn2)ccn1 [Example 40, (4S)-8-chloro-N-(5-((S)-2,3-dihydroxypropoxy)pyrazin-2-yl)-7-(2-methylpyridin-4-yl)-3,4-dihydro-1,4-methanopyrido[2,3-b][1,4]diazepine-5(2H)-carboxamide]
TRP Activity (EC1.5): B (EC1.5 1-25 μM)
TRP MAX RESP (percent maximum fold activation): A (Fold activation ≧150%)

SMILES: Cc1cc(-c2nc3c(cc2Cl)N2CC[C@@H](C2)N3C(=O)Nc2cccc(OC[C@H](O)CO)n2)ccn1 [Example 41, (4S)-8-chloro-N-(6-((R)-2,3-dihydroxypropoxy)pyridin-2-yl)-7-(2-methylpyridin-4-yl)-3,4-dihydro-1,4-methanopyrido[2,3-b][1,4]diazepine-5(2H)-carboxamide]
TRP Activity (EC1.5): B (EC1.5 1-25 μM)
TRP MAX RESP (percent maximum fold activation): A (Fold activation ≧150%)

SMILES: O=C(Nc1ccnc(OCCCO)n1)N1c2nc(-c3cccc(C(F)(F)F)c3)c(Cl)cc2N2CC[C@H]1C2 [Example 42, (4S)-8-chloro-N-(2-(3-hydroxypropoxy)pyrimidin-4-yl)-7-(3-(trifluoromethyl)phenyl)-3,4-dihydro-1,4-methanopyrido[2,3-b][1,4]diazepine-5(2H)-carboxamide]
TRP Activity (EC1.5): A (EC1.5<1 μM)
TRP MAX RESP (percent maximum fold activation): A (Fold activation ≧150%)

SMILES: CC(C)(CO)COc1cncc(NC(=O)N2c3nc(-c4cccc(C(F)(F)F)c4)c(Cl)cc3N3CC[C@H]2C3)n1 [Example 43, (4S)-8-chloro-N-(6-(3-hydroxy-2,2-dimethylpropoxy)pyrazin-2-yl)-7-(3-(trifluoromethyl)phenyl)-3,4-dihydro-1,4-methanopyrido[2,3-b][1,4]diazepine-5(2H)-carboxamide]
TRP Activity (EC1.5): B (EC1.5 1-25 μM)
TRP MAX RESP (percent maximum fold activation): A (Fold activation ≧150%)

SMILES: Cc1cc(-c2nc3c(cc2Cl)N2CC[C@@H](C2)N3C(=O)Nc2cc(OC[C@@H](O)CO)ncn2)ccn1 [Example 44, (4S)-8-chloro-N-(6-((S)-2,3-dihydroxypropoxy)pyrimidin-4-yl)-7-(2-methylpyridin-4-yl)-3,4-dihydro-1,4-methanopyrido[2,3-b][1,4]diazepine-5(2H)-carboxamide]
TRP Activity (EC1.5): C (EC1.5>25 μM)
TRP MAX RESP (percent maximum fold activation): B (Fold Activation <150%)

SMILES: CC(C)(O)CCOc1nccc(NC(=O)N2c3nc(-c4cccc(C(F)(F)F)c4)c(Cl)cc3N3CC[C@H]2C3)n1 [Example 48, (4S)-8-chloro-N-(2-(3-hydroxy-3-methylbutoxy)pyrimidin-4-yl)-7-(3-(trifluoromethyl)phenyl)-3,4-dihydro-1,4-methanopyrido[2,3-b][1,4]diazepine-5(2H)-carboxamide]
TRP Activity (EC1.5): B (EC1.5 1-25 μM)
TRP MAX RESP (percent maximum fold activation): A (Fold activation ≧150%)

SMILES: O=C(NC1CC1)N1c2nc(-c3cccc(C(F)(F)F)c3)c(Cl)cc2N2CC[C@H]1C2 [Example 52, (4S)-8-chloro-N-cyclopropyl-7-(3-(trifluoromethyl)phenyl)-3,4-dihydro-1,4-methanopyrido[2,3-b][1,4]diazepine-5(2H)-carboxamide]
TRP Activity (EC1.5): A (EC1.5<1 μM)
TRP MAX RESP (percent maximum fold activation): A (Fold activation ≧150%)

SMILES: Cl.O=C(NC1CC1)N1c2nc(-c3cccc(C(F)(F)F)c3)c(Cl)cc2N2CC[C@H]1C2 [Example 53, (4S)-8-chloro-N-cyclopropyl-7-(3-(trifluoromethyl)phenyl)-3,4-dihydro-1,4-methanopyrido[2,3-b][1,4]diazepine-5(2H)-carboxamide Hydrochloride]
TRP Activity (EC1.5): A (EC1.5<1 μM)
TRP MAX RESP (percent maximum fold activation): A (Fold activation ≧150%)

The next lines start with the values.

TRP Activity (EC1.5): A (EC1.5<1 μM)
TRP MAX RESP (percent maximum fold activation): A (Fold activation ≧150%)
SMILES: O=C(Nc1cncc(OC[C@@H](O)CO)n1)N1c2nc(-c3cccc(C(F)(F)F)c3)c(Cl)cc2N2CC[C@H]1C2 [Example 45, (4S)-8-chloro-N-(6-((S)-2,3-dihydroxypropoxy)pyrazin-2-yl)-7-(3-(trifluoromethyl)phenyl)-3,4-dihydro-1,4-methanopyrido[2,3-b][1,4]diazepine-5(2H)-carboxamide]

TRP Activity (EC1.5): A (EC1.5<1 μM)
TRP MAX RESP (percent maximum fold activation): A (Fold activation ≧150%)
SMILES: O=C(Nc1nccc(OC[C@H](O)CO)n1)N1c2nc(-c3cccc(C(F)(F)F)c3)c(Cl)cc2N2CC[C@H]1C2 [Example 46, (4S)-8-chloro-N-(4-((R)-2,3-dihydroxypropoxy)pyrimidin-2-yl)-7-(3-(trifluoromethyl)phenyl)-3,4-dihydro-1,4-methanopyrido[2,3-b][1,4]diazepine-5(2H)-carboxamide]

TRP Activity (EC1.5): B (EC1.5 1-25 μM)
TRP MAX RESP (percent maximum fold activation): A (Fold activation ≧150%)
SMILES: Cc1cc(-c2nc3c(cc2Cl)N2CC[C@@H](C2)N3C(=O)Nc2cc(F)cc(-c3cccnc3)c2)ccn1 [Example 47, (4S)-8-chloro-N-(3-fluoro-5-(pyridin-3-yl)phenyl)-7-(2-methylpyridin-4-yl)-3,4-dihydro-1,4-methanopyrido[2,3-b][1,4]diazepine-5(2H)-carboxamide]

TRP Activity (EC1.5): B (EC1.5 1-25 μM)
TRP MAX RESP (percent maximum fold activation): A (Fold activation ≧150%)
SMILES: CC(C)(CO)COc1cccc(NC(=O)N2c3nc(-c4cccc(C(F)(F)F)c4)c(Cl)cc3N3CC[C@H]2C3)n1 [Example 49, (4S)-8-chloro-N-(6-(3-hydroxy-2,2-dimethylpropoxy)pyridin-2-yl)-7-(3-(trifluoromethyl)phenyl)-3,4-dihydro-1,4-methanopyrido[2,3-b][1,4]diazepine-5(2H)-carboxamide]

TRP Activity (EC1.5): A (EC1.5<1 μM)
TRP MAX RESP (percent maximum fold activation): A (Fold activation ≧150%)
SMILES: O=C(Nc1ccnc(OC[C@H](O)CO)n1)N1c2nc(-c3cccc(C(F)(F)F)c3)c(Cl)cc2N2CC[C@H]1C2 [Example 50, (4S)-8-chloro-N-(2-((R)-2,3-dihydroxypropoxy)pyrimidin-4-yl)-7-(3-(trifluoromethyl)phenyl)-3,4-dihydro-1,4-methanopyrido[2,3-b][1,4]diazepine-5(2H)-carboxamide]

TRP Activity (EC1.5): A (EC1.5<1 μM)
TRP MAX RESP (percent maximum fold activation): A (Fold activation ≧150%)
SMILES: Cl.O=C(Nc1ccnc(OC[C@H](O)CO)n1)N1c2nc(-c3cccc(C(F)(F)F)c3)c(Cl)cc2N2CC[C@H]1C2 [Example 51, (4S)-8-chloro-N-(2-((R)-2,3-dihydroxypropoxy)pyrimidin-4-yl)-7-(3-(trifluoromethyl)phenyl)-3,4-dihydro-1,4-methanopyrido[2,3-b][1,4]diazepine-5(2H)-carboxamide Hydrochloride]

TRP Activity (EC1.5): B (EC1.5 1-25 μM)
TRP MAX RESP (percent maximum fold activation): A (Fold activation ≧150%)
SMILES: O=C(Nc1ccnc(OC2CCOCC2)n1)N1c2nc(-c3cccc(C(F)(F)F)c3)c(Cl)cc2N2CC[C@H]1C2 [Example 55, (4S)-8-chloro-N-(2-((tetrahydro-2H-pyran-4-yl)oxy)pyrimidin-4-yl)-7-(3-(trifluoromethyl)phenyl)-3,4-dihydro-1,4-methanopyrido[2,3-b][1,4]diazepine-5(2H)-carboxamide]
